Data from PubChem BioAssay (NCI).
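Assay format: 96-well plates, 48-hour exposure. The concentration for 50% growth inhibition is given as GI50. At the TGI there is no net growth.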

Assays:
Experiment in all cases: NCI tumour cell line growth inhibition, 48 h
DU-145 prostate = tested on: DU-145 prostate
MDA-MB-435 = tested on: MDA-MB-435
KM12 colon = tested on: KM12 colon
M14 melanoma = tested on: M14 melanoma
CCRF-CEM leukemia = tested on: CCRF-CEM leukemia
HCT-116 colon = tested on: HCT-116 colon
HCC-2998 colon = tested on: HCC-2998 colon
BT-549 breast = tested on: BT-549 breast
SN12C renal = tested on: SN12C renal
A498 renal = tested on: A498 renal

| Structure (SMILES) | GI50 (DU-145 prostate) | TGI (DU-145 prostate) | GI50 (MDA-MB-435) | TGI (MDA-MB-435) | GI50 (KM12 colon) | TGI (KM12 colon) | GI50 (M14 melanoma) | TGI (M14 melanoma) | GI50 (CCRF-CEM leukemia) | TGI (CCRF-CEM leukemia) | GI50 (HCT-116 colon) | TGI (HCT-116 colon) | GI50 (HCC-2998 colon) | TGI (HCC-2998 colon) | GI50 (BT-549 breast) | TGI (BT-549 breast) | GI50 (SN12C renal) | TGI (SN12C renal) | GI50 (A498 renal) | TGI (A498 renal) |
| --- | --- | --- | --- | --- | --- | --- | --- | --- | --- | --- | --- | --- | --- | --- | --- | --- | --- | --- | --- | --- |
| NC1=NC(=O)/C(=C/c2ccc3ncccc3c2)S1 | > 25 µM | > 25 µM | > 10.9 µM | > 25 µM | > 25 µM | > 25 µM | > 25 µM | > 25 µM | > 25 µM | > 25 µM | > 13.8 µM | > 25 µM | > 25 µM | > 25 µM | > 18.8 µM | > 25 µM | > 25 µM | > 25 µM | > 17.3 µM | > 25 µM |
| C=C1C(=O)O[C@H]2[C@H]1CC/C(Cn1cc(-c3cccc(Cl)c3)nn1)=C\CC[C@@]1(C)O[C@@H]21 | 1 µM | 2.16 µM | 0.591 µM | 1.98 µM | 1.78 µM | 3.74 µM | 0.798 µM | 2.2 µM | 0.2 µM | 0.685 µM | 0.163 µM | 0.377 µM | 1.64 µM | 3.29 µM | 0.778 µM | 2.1 µM | 1.4 µM | 3.35 µM | 1.52 µM | 2.97 µM |
| CCOC(=O)c1c(NC(=O)c2ccccc2)sc2c3c(ccc12)OCN(C)C3 | 1.67 µM | 3.12 µM | 1.64 µM | 3.02 µM | 1.75 µM | 3.3 µM | 1.74 µM | 3.29 µM | 1.97 µM | 5.75 µM | 1.77 µM | 3.27 µM | 1.03 µM | 2.35 µM | 5.76 µM | 19.5 µM | 1.63 µM | 3.22 µM | 1.65 µM | 3.21 µM |
| O=C1c2cccnc2C(=O)c2c1c(C(=O)NCCn1ccnc1)c1ccccn21 | 3.09 µM | 12.4 µM | 1.71 µM | 3.13 µM | 2.96 µM | 19 µM | 1.91 µM | 6.13 µM | 6.12 µM | > 100 µM | 3.18 µM | 9.58 µM | 2.23 µM | 9.82 µM | 5.14 µM | 16.9 µM | 2.28 µM | 7.28 µM | 5.43 µM | 17.6 µM |
| COc1ccc2nc(-c3ccccc3)cc(Nc3cccc(C(C)=O)c3)c2c1 | 13.2 µM | 32.3 µM | 4.51 µM | 17.1 µM | – | – | 5.11 µM | 20.2 µM | > 100 µM | > 100 µM | 3.72 µM | 15.4 µM | 13.2 µM | 45.1 µM | 18.2 µM | 40.3 µM | 3.96 µM | 17.9 µM | 2.42 µM | 15 µM |
| Cc1nc(-c2cnc(NC(C)C)n(C)c2=O)ccc1Oc1ccnc(-c2cnn(C)c2)c1 | 33.2 µM | > 100 µM | 2.98 µM | 18.2 µM | 5.91 µM | > 100 µM | 5.72 µM | 33.4 µM | 12.1 µM | > 100 µM | 4.67 µM | > 100 µM | 24 µM | > 100 µM | 12.7 µM | 70 µM | 19.7 µM | > 100 µM | 4.8 µM | 38.6 µM |
| C/C(=N/O)c1ccc2c(c1)/C(=N/O)c1ccccc1-2 | 26.4 µM | 71 µM | 18.7 µM | 39.4 µM | 18.1 µM | 35.4 µM | 21.9 µM | 40.6 µM | 25.4 µM | 62.6 µM | 20.7 µM | 38.5 µM | 20.3 µM | 35.9 µM | 21.4 µM | 50.4 µM | 19.8 µM | 44.5 µM | 34.9 µM | > 100 µM |
| CCCCCCCCCCCCCCCCCCOc1ccccc1CC(=O)OCC[N+](CC)(CC)CC | 2.07 µM | 7.99 µM | 1.55 µM | 6.2 µM | 1.42 µM | 3.86 µM | 1.53 µM | 5.4 µM | 1.48 µM | 13.1 µM | 1.61 µM | 7.76 µM | 1.22 µM | 3.9 µM | 1.95 µM | 9.22 µM | 1.3 µM | 5.68 µM | 2.13 µM | 8.49 µM |
| CCOc1ccc2c(c1)CN(Cc1ccc(Cl)cc1)CO2 | 22.8 µM | 53.2 µM | 15.2 µM | 29.5 µM | 18.3 µM | 35.5 µM | – | – | 29.9 µM | 98.5 µM | 14.8 µM | 29 µM | 18.7 µM | 35 µM | 17.6 µM | 36.8 µM | 25.9 µM | > 100 µM | 2.09 µM | 19.2 µM |
| CCCCN=C(N)c1ccc(N2CCCN(c3ccc(C(N)=NCCCC)cc3)CC2)cc1 | 25.1 µM | > 100 µM | 14.8 µM | > 96.6 µM | 5.72 µM | 47.8 µM | 43.1 µM | > 100 µM | 16.3 µM | > 100 µM | 21 µM | > 100 µM | 8.88 µM | 58.2 µM | 14.4 µM | > 58.3 µM | 16.6 µM | > 100 µM | 0.529 µM | 30.3 µM |
| CCN(CC)c1ccc(C2NC(=O)c3ccccc3N2)cc1 (configuration not stated) | – | > 100 µM | – | 3.44 µM | – | – | – | > 100 µM | – | 3.38 µM | – | > 100 µM | – | 5.79 µM | – | > 100 µM | – | > 100 µM | – | > 31.6 µM |
| O=C1c2ccccc2C(=O)c2c1ccc1c(=O)n(-c3ccccc3C(F)(F)F)nnc21 | 3.19 µM | > 100 µM | 1.66 µM | 3.1 µM | 1.88 µM | 5.5 µM | – | – | 2.03 µM | > 100 µM | 1.85 µM | 10.5 µM | 2.45 µM | 6.16 µM | 1.81 µM | 6.8 µM | 2.23 µM | 28.9 µM | 1.76 µM | 3.65 µM |
| O=C1C=CC(=Nc2cccc3c(N=C4C=CC(=O)O4)cccc23)O1 | – | > 100 µM | – | > 100 µM | – | > 100 µM | – | 87.8 µM | – | – | – | 53.1 µM | – | > 100 µM | – | > 100 µM | – | 77.9 µM | – | > 100 µM |
